Turning to `COCC(=O)NC(=O)C(=NOC)c1ccccc1CO/N=C(\C)c1ccc(C(F)(F)F)cc1` [Example 1, 2-methoxy-N-(methoxyimino-{2-[1-(4-trifluoromethylphenyl)-ethylideneaminooxymethyl]-phenyl}-acetyl)-acetamide], the melting point is 134 to 138 °C.
Next, `CON=C(C(=O)NC(=O)CCl)c1ccccc1CO/N=C(\C)c1ccc(C(F)(F)F)cc1` [Example 2, 2-chloro-N-(methoxyimino-{2-[1-(4-trifluoromethylphenyl)-ethylideneaminooxymethyl]-phenyl}-acetyl)-acetamide]: 92 °C (dec.).

For the origin of these results see patent US6350909B1, “Methoxymino-phenylacetamide derivatives and their utilization as pesticides” (Bayer Aktiengesellschaft, priority 1998, dated 2002).
